# Results reported in patent US7897610B2, “Use of benzo[c]quinolizinium derivatives for the treatment of diseases that are linked to smooth muscle cell constriction” (Centre National de la Recherche Scientifique, priority 2002, dated 2011).
# Like-named read-outs stand apart in the source and are kept apart here.
# Legend:
# [1] = test system: aorta rings with endothelium pre-contracted by arterenol; assay: Isolated organ technique: relaxation of rat aorta rings pre-contracted by arterenol; type: cell-based; conditions: 200 μM, added after MPB-07 10 μM
# Protocol: The experiments are carried out on the thoracic aorta of male rats of Wistar strain weighing 200 to 250 g, 7 to 8 weeks of age. The rat is stunned then placed in the supine position. After thoracotomy, the segment of the aorta comprised between the diaphragm and the right aortic arch is excised. The portion of aorta is immediately placed in a buffered physiological solution of modified Krebs type. The aorta is sectioned into 5 mm rings. The aorta rings, after dissection, are suspended between two hooks one of which is fixed and the other is mobile. […] The thermostatically-controlled enclosure is supplied by a water bath. The mobile hook is suspended with a sensor connected to the interface (electromechanical transducer). This interface is connected on the one hand to an amplifier (amplification of the signal) and on the other hand to a computer (display and analysis of the signal). […] The Data Analyst and Prism 3.0 programs allow analysis of the results. After mounting the aorta rings in the experimental device, these are stretched at a basal tension of 2.5 g. This tension corresponds to the optimum point of their tension/length relationship. Waiting for a stable state in the reference physiological medium is carried out over a period of approximately 1 hour with washing every 20 minutes. Following this equilibration period, the different experiments are carried out. […]
# CFTR [2] = target: T1, CFTR (Rattus norvegicus, UniProt P34158); assay: Iodide efflux in muscle cell freshly dissociated from rat aorta; type: cell-based
# T1 construct: CFTR is detected at the level of its messenger RNA and at the level of protein in the smooth muscles; from tissue; host or cells: smooth muscle cells freshly dissociated from rat aorta
# T1 sequence (P34158 whole entry): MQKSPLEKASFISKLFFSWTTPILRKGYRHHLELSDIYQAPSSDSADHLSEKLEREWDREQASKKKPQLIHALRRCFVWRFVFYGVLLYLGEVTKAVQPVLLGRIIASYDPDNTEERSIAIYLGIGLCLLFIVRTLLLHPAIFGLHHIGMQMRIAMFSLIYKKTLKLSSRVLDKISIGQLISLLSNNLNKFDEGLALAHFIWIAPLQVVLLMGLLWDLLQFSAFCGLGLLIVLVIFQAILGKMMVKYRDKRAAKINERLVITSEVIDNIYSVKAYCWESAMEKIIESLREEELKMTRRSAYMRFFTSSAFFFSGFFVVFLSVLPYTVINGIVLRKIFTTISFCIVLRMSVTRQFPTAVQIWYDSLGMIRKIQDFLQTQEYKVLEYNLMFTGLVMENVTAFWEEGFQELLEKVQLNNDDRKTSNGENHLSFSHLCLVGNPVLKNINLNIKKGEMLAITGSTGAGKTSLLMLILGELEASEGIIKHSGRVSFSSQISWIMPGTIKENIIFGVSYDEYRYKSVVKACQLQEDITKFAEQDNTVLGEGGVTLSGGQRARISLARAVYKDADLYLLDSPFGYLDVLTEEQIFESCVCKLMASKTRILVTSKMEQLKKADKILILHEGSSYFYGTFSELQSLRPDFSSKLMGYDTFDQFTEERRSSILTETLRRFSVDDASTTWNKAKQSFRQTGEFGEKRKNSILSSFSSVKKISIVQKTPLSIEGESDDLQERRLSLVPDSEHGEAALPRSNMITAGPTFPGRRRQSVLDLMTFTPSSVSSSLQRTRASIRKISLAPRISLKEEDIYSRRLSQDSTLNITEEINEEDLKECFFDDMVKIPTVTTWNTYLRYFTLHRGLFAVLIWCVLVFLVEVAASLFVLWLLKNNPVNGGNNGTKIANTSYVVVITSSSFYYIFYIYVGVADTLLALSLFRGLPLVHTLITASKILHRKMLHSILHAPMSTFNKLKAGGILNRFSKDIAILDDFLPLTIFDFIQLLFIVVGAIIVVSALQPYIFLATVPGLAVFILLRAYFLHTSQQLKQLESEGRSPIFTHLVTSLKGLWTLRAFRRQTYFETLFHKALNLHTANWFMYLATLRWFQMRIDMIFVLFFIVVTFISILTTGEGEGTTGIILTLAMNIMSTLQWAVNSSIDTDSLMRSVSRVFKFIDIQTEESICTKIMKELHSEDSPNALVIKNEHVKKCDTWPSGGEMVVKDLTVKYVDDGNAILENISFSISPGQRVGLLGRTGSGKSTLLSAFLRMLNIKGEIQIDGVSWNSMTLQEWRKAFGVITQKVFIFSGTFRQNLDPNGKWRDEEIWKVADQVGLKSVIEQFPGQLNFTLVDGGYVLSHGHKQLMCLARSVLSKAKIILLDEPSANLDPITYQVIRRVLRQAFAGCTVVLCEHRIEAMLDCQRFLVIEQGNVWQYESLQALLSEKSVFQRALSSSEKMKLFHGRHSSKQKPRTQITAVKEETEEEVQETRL
# Description: (§1) CFTR is detected at the level of its messenger RNA and at the level of protein in the smooth muscles. As negative control the inventors used musculus skeleti of rat at the level of which neither the messenger nor the protein are present. CFTR is detectable in the smooth muscle by immunoprecipitation and phosphorylation in vitro by the protein kinase A. The pharmacology of CFTR has been studied using iodide efflux in muscle cell freshly dissociated from rat aorta. […] Its inhibition profile is similar to that of epithelial CFTR (sensitivity to glibenclamide and DPC but not to Calixarene). […] Moreover, a greater contraction is observed in the KO animals in response to the constricting agents.
# [3] = test system: aorta rings isolated from rats; assay: Isolated organ technique: relaxation of rat aorta rings pre-contracted in hyperpotassium solution (80 mM KCl); type: cell-based; conditions: for relaxation: with endothelium; for EC50: Rattus norvegicus
# Protocol: The experiments are carried out on the thoracic aorta of male rats of Wistar strain weighing 200 to 250 g, 7 to 8 weeks of age. The rat is stunned then placed in the supine position. After thoracotomy, the segment of the aorta comprised between the diaphragm and the right aortic arch is excised. The portion of aorta is immediately placed in a buffered physiological solution of modified Krebs type. The aorta is sectioned into 5 mm rings.
# For certain preparations, the endothelium is removed mechanically using a needle surrounded by a wire which is turned in the aorta ring.
# The aorta rings, after dissection, are suspended between two hooks one of which is fixed and the other is mobile. This mounting is placed in a chamber of Plexiglas (Emka Technologies), thermostatically-controlled at 37° C., containing 5 ml of physiological solution oxygenated by a gas mixture (95% O2-5% CO2). The thermostatically-controlled enclosure is supplied by a water bath. The mobile hook is suspended with a sensor connected to the interface (electromechanical transducer). This interface is connected on the one hand to an amplifier (amplification of the signal) and on the other hand to a computer (display and analysis of the signal). The IOX 1.565 program enables the processing and display of the signals on the computer screen. The Data Analyst and Prism 3.0 programs allow analysis of the results.
# After mounting the aorta rings in the experimental device, these are stretched at a basal tension of 2.5 g. This tension corresponds to the optimum point of their tension/length relationship. Waiting for a stable state in the reference physiological medium is carried out over a period of approximately 1 hour with washing every 20 minutes. Following this equilibration period, the different experiments are carried out.
# In order to be free of the relaxation/contraction mechanisms due to the endothelium, certain preparations are made devoid of the latter by mechanical destruction. In order to ensure effective destruction of the endothelium, a cholinergic test (ACh 10^−4 M) is carried out at the end of the first period of equilibration, on preparations pre-contracted by a hyperpotassium solution (80 mM of KCl).
# Following this test, the preparations are subjected to several successive washings in order to re-establish a stable state. Once a stable state is reached, the different experiments can be carried out. The contractures due to the hyperpotassium solutions are obtained by the total replacement of the reference physiological solution by the hyperpotassium solution. The administration of the pharmacological substances is carried out in a cumulative fashion and directly in the isolated organ chambers whilst paying attention that the additional volume is not too high. The application of each new concentration only occurs after stabilization. In order to be aware of the reactivity state of the preparation at the end of manipulation, a hyperpotassium or noradrenergic test is carried out. If the preparation reacts in the direction of a contracture, the test is valid.
# The composition of the reference physiological solution is a solution of modified Krebs type: NaCl: 120 mM; KCl: 4.7 mM; CaCl2: 2.5 mM; MgCl2: 1.2 mM; NaH2PO4: 1.2 mM; NaHCO3: 15 mM; Hepes: 10 mM; Glucose: 11 mM; pH=7.4. Hyperpotassium solutions containing different concentrations of KCl have been prepared according to the same principle. These solutions are used to provoke a contracture of the aorta ring by depolarisation of the smooth muscle cells. The hyperpotassium solution mainly used in the experiments contains 80 mM of KCl.
# [4] = test system: aorta rings of Cftr+/+ mice; assay: Vasorelaxation of aorta rings contracted by 80 mM K+, Cftr+/+ mice; type: cell-based, mouse; conditions: Cftr+/+ rat and mouse tissues
# Description: as §1
# (§2) a, graphs showing the vasorelaxation induced by the VIP neuropeptide (Vasoactive Intestinal Polypeptide) of aortas without endothelium of Cftr^+/+ (left) and Cftr^−/− (right) mice. The aorta rings are reversibly contracted by a hyperpotassium solution (solution of 80 mM K^+) then the effect of 300 nM VIP is measured. The absence of endothelium is verified by the addition of acetylcholine (ACh, 10^−5 M).
# (§3) This effect is absent in Cftr^−/− mice (n=6). Average±SEM*P<0.05, ** P<0.01, *** P<0.001.
# [5] = test system: aorta rings of Cftr-/- mice; assay: Vasorelaxation of aorta rings contracted by 80 mM K+, Cftr-/- mice; type: cell-based, mouse; conditions: pre-contracted aorta
# Description: as §1, §2, §3
# CFTR [6] = target: T2, CFTR (Homo sapiens, UniProt P13569); conditions: epithelial cells; cited from earlier work
# T2 construct: In cells expressing the CFTR protein in an endogenous manner
# T2 sequence (P13569 whole entry): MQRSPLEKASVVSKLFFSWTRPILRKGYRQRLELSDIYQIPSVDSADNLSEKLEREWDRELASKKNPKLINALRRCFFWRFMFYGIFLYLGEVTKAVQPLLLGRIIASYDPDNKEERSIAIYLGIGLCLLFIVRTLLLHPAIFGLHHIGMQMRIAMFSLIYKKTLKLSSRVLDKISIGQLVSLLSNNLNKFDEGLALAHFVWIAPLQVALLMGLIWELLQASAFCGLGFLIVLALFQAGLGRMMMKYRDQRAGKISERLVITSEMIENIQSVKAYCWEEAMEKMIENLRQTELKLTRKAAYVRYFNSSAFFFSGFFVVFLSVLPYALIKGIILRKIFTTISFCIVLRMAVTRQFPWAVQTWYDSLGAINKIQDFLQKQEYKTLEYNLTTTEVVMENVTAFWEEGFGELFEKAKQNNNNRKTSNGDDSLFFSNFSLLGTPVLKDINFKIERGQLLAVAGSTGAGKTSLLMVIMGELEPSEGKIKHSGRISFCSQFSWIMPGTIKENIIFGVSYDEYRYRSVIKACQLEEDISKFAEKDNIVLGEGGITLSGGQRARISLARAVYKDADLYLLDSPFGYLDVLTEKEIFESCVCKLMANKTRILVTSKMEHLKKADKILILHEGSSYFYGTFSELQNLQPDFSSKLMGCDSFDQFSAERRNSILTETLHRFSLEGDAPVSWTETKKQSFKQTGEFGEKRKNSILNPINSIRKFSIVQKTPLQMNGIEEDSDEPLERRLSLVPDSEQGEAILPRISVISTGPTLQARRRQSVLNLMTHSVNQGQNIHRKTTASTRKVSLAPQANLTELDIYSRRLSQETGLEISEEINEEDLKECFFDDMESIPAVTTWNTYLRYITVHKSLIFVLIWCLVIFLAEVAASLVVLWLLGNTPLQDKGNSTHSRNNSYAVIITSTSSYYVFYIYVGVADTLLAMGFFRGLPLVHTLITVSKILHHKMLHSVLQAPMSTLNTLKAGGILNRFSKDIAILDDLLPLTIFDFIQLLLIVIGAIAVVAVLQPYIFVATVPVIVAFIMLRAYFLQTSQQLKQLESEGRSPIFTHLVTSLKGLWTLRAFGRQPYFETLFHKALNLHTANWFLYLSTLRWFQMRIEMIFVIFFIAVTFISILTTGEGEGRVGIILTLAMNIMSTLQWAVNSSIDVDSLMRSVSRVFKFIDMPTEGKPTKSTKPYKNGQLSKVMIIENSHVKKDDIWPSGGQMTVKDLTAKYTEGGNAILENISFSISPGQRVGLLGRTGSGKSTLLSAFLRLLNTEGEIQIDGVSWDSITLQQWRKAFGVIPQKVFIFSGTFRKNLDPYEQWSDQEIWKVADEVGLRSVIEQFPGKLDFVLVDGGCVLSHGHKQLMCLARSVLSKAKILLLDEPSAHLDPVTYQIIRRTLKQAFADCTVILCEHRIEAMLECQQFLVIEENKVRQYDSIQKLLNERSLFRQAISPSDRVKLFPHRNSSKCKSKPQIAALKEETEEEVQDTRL
# [7] = test system: anionic transport in smooth muscle cells of aorta rings; assay: Iodide efflux (125I) on rat aorta rings; type: cell-based; parameters: key to iodide discharge speed / iodide discharge speed after stimulation: Ln(125I t1/125I t2)/(t1−t2), per min; conditions: for iodide discharge speed: without endothelium, hyperpotassium medium, 250 μM
# Protocol: The iodide efflux technique, perfected by Venglarick et al. (1990), allows measurement of the movement of ions and is described in detail in Derand et al. (2001).
# The aorta rings of equivalent size, are incubated in 1 ml of filling solution composed of physiological solution of modified Krebs type or hyperpotassium solution (80 mM KCl) supplemented with 1.5 μl/ml of Na ^125I and 0.1 μl/ml of KI. After incubation for 1 hour 30 minutes at 37° C., 4 successive rinsings of two minutes are carried out in 1 ml of appropriate physiological solution (normal Krebs or hyperpotassium solution). An iodide efflux kinetics of the aorta rings is carried out for 12 min. After each minute, the content of each well is sampled and placed in hemolysis tubes, and radioactivity is counted with a gamma counter (Packard, Cobra II). At the 12th minute, the aorta rings are solubilized in Sodium Dodecyl Sulphate (SDS 0.1%)+NaOH (0.1 M). This stage allows the recovery of the residual radioactivity by cell destruction.
# The total radioactivity of the cells is calculated by the addition of the counts per minute (cpm) of each collected fraction and of the cpm of the solubilized fraction (residual radioactivity). The curves are plotted expressing the efflux as a percentage of the cell content accumulated in the medium as a function of time. For example, the value attributed at time tn, corresponds to: 100×(Σ cpm obtained from t0 to tn)/total radioactivity. The instantaneous discharge speed is presented according to the formula Ln(^125It1/^125It2)/(t1−t2), where t1 and t2 are two successive times and ^125It1 and ^125It2 are the effluxes measured at time t1 and t2. In order to evaluate the effect of a substance, the activation ratio r=discharge speed after stimulation/discharge speed before stimulation is determined. The results (average±SEM) are compared using Student's statistical test for a paired value.
molecule,measurement,setting,value
"COc1ccc(CCN(C)CCCC(C#N)(c2ccc(OC)c(OC)c2)C(C)C)cc1OC (stereo not shown) [verapamil, Verapamil, reference compound]",effect on rapid contracture oscillations,[1],stops these variations
Nc1ncnc2c1nc(Sc1ccc(Cl)cc1)n2[C@@H]1O[C@@H]2COP(=O)(O)O[C@H]2[C@H]1O [cpt-cAMP],activation of iodide efflux,CFTR [2],activate iodide efflux
CC(C)Cn1c(=O)n(C)c(=O)c2[nH]cnc21 [IBMX],activation of iodide efflux,CFTR [2],activate iodide efflux
"CC(=O)OCC[N+](C)(C)C [ACh, acetylcholine, reference compound]",relaxation (cholinergic test),"[3]; rings with endothelium, 10^-4 M",approximately 40%
"Vasoactive Intestinal Polypeptide [VIP, reference compound]",activation of iodide efflux,CFTR [2],activate iodide efflux
same,effect on pre-contracted aorta,[4],relaxation of the pre-contracted aorta
same,vasorelaxation in Cftr-/- mice,[5],very considerably reduced
"O=c1cc2ccccn2c2c(Cl)cccc12 [MPB-70, 10-chlorobenzo[c]quinolizine-6-one, reference compound]",relaxation,[3]; 160 μM,27%
same,relaxation,[3]; 250 μM,42%
same,relaxation,[3]; 500 μM,46%
same,activity on the CFTR channel,CFTR [6],inactive on CFTR of epithelial cells
same,activation of anionic transport / discharge speed,[7]; smooth muscle cells of aorta rings,no increase in the discharge speed
same,iodide discharge speed,[7]; 1 minute after addition,0.053±0.003
same,iodide discharge speed,[7]; 2 minutes after addition,0.055±0.005
"CCCCc1c(O)c2cccc(Cl)c2[n+]2ccccc12.[Cl-] [MPB-91, 5-n-Butyl-10-chloro-6-hydroxybenzo[c]quinolizinium chloride]",melting point,,160 °C
same,EC50,"[3]; comparison of FIG. 6, read-out: EC50, dose/response curves",21 µM
same,EC50,"[3]; summary statement of results, read-out: EC50, vasorelaxant effect",21 µM
O=C(O)c1ccccc1Nc1ccccc1 [DPC],inhibition profile of iodide efflux,CFTR [2],sensitivity
COc1ccc(Cl)cc1C(=O)NCCc1ccc(S(=O)(=O)NC(=O)NC2CCCCC2)cc1 [glibenclamide],inhibition profile of iodide efflux,CFTR [2],sensitivity
